Measured values taken from publication PMC7391959 (ACS Omega, 2020).
Like-named read-outs stand apart in the source and are kept apart here.

How the values were obtained:
[1] = target: T1, α-mannosidase (jack beans) (Canavalia ensiformis, UniProt C0HJB3); experiment: Glycosidase inhibition assay, α-mannosidase; type: biochemical; settings: for mode of inhibition: Cornish-Bowden method; for Ki: pH 5.6, 35 °C, competitive inhibition
T1 construct: purchased
T1 sequence (C0HJB3 1-981): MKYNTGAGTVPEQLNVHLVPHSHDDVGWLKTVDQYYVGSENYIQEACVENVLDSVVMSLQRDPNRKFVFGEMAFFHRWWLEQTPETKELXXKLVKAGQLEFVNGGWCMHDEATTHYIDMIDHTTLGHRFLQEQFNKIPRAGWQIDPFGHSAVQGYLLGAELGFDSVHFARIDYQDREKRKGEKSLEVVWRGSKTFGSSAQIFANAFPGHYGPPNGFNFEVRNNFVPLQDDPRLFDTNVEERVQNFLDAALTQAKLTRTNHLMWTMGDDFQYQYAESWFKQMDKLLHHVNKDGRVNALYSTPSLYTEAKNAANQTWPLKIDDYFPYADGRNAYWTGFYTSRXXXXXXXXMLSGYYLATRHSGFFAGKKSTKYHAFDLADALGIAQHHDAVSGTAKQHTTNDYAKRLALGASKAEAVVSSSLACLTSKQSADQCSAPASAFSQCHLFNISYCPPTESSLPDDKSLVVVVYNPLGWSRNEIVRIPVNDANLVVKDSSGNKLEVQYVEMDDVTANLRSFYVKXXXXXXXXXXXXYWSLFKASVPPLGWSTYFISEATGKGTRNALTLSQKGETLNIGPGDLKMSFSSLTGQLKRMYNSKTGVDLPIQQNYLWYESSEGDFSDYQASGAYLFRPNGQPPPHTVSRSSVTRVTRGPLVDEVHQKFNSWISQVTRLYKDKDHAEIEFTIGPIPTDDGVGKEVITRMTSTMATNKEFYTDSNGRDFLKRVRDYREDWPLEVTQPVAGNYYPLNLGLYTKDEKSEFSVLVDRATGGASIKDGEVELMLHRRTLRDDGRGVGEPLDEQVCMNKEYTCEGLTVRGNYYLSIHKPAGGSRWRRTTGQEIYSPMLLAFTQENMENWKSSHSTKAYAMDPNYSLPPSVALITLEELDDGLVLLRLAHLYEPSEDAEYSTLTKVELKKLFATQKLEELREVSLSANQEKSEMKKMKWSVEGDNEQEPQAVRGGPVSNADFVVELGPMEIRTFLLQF
Method: (§1) Inhibition assays for glycosidases were accomplished using the methodology reported by Bols and co-workers.[32] The percentage of inhibition was measured by preparing two 1.2 mL samples in PS cuvettes containing 0.1 M phosphate buffer (pH 6.8 or 5.6 for mannosidases) and the corresponding o- or p-nitrophenyl-glycopyranoside at a concentration equal to the expected value of KM: [S] = 0.25 mM for α-glucosidase, 4.0 mM for β-glucosidase; 0.60 mM for α-galactosidase, 0.51 mM for β-galactosidase (E. coli), 1.5 mM for β-galactosidase (A. oryzae), 0.90 mM for α-mannosidase, and 0.58 mM for β-mannosidase. DMSO (control) or inhibitor solution (DMSO) plus water was added up to a constant volume of 1.14 mL. Screenings were conducted using a 100 μM final inhibitor concentration.
(§2) Reactions were started by adding 60 μL of properly diluted enzyme solution at 25 ± 0.1 °C or 35 ± 0.1 °C (for mannosidases), and the formation of the corresponding o- or p-nitrophenolate was monitored for 125 s by measuring the increase in absorbance at 400 nm (glucosidases and α-galactosidase) or 420 nm (β-galactosidases) for 125 s. For α- and β-mannosidases, an aliquot (200 μL) was taken every 60 s and added to a 1 M Na2CO3 solution (1.8 mL), and the absorbance was measured at 400 nm over a period of 4 min.
(§3) Initial rates (slopes of the plots Abs vs t) were used for calculating %I, according to the following expression: [drawing 1] where v0 is the reaction rate for the enzyme solution and v is the reaction rate for the reactions incorporating an inhibitor.
(§4) DMSO concentration was maintained at 5% (v/v) of the total assay mixture for glycosidases.
(§5) The mode of inhibition was determined using the Cornish-Bowden method,[33] which involves the use of two different plots: 1/v vs [I] (Dixon plot) and [S]/v vs [I]. For the calculation of kinetic parameters (KM, Vmax), a nonlinear regression analysis (least-squares fit) was used.

[2] = tested on: β-mannosidase (H. pomatia); experiment: Glycosidase inhibition assay, β-mannosidase; type: biochemical, Helix pomatia; settings: at 100 μM inhibitor concentration
Method: as §1, §2, §3, §4, §5

[3] = tested on: α-glucosidase (S. cerevisiae); experiment: Glycosidase inhibition assay, α-glucosidase; type: biochemical, Saccharomyces cerevisiae; settings: for IC50: 100 μM = maximum inhibitor concentration tested
Method: as §1, §2, §3, §4, §5

[4] = target: T2, β-galactosidase (A. oryzae) (Aspergillus oryzae, UniProt Q2UCU3); experiment: Glycosidase inhibition assay, β-galactosidase (A. oryzae); type: biochemical; settings: at 100 μM inhibitor concentration
T2 construct: purchased
T2 sequence (Q2UCU3 19-1005): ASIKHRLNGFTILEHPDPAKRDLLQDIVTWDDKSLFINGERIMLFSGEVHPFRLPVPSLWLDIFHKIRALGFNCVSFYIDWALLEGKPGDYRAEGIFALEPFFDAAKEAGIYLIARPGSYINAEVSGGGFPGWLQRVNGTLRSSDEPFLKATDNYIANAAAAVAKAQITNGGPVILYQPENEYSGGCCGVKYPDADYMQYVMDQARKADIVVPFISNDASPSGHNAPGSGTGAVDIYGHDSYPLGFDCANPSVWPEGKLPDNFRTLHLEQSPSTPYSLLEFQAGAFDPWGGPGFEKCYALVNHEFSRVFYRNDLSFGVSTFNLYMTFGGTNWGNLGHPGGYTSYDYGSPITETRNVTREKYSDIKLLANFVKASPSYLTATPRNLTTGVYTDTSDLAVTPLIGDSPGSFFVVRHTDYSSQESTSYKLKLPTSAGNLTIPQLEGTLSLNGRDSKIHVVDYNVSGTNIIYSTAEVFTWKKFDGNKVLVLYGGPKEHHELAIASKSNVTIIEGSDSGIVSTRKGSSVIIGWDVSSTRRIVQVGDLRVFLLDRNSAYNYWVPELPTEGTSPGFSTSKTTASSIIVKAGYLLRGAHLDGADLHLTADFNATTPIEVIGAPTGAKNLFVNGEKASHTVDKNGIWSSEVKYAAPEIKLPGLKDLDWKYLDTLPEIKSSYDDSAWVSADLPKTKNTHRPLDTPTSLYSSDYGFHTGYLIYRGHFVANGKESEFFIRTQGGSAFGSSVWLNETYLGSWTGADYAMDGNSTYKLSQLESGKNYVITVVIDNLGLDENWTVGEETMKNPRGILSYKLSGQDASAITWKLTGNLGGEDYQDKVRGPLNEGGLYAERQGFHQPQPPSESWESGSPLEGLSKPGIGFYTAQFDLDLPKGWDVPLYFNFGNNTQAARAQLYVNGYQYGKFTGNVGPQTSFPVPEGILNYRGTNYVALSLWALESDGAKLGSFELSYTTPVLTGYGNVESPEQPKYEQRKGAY
Method: as §1, §2, §3, §4, §5

β-glucosidase (almonds) [5] = experiment: Glycosidase inhibition assay, β-glucosidase; type: biochemical; settings: for IC50: pH 6.8, 25 °C, 100 μM = maximum inhibitor concentration tested; for inhibition: at 100 μM inhibitor concentration
Method: as §1, §2, §3, §4, §5

[6] = target: T3, α-galactosidase (green coffee beans) (Coffea arabica, UniProt Q42656); experiment: Glycosidase inhibition assay, α-galactosidase; type: biochemical; settings: at 100 μM inhibitor concentration
T3 construct: purchased
T3 sequence (Q42656 16-378): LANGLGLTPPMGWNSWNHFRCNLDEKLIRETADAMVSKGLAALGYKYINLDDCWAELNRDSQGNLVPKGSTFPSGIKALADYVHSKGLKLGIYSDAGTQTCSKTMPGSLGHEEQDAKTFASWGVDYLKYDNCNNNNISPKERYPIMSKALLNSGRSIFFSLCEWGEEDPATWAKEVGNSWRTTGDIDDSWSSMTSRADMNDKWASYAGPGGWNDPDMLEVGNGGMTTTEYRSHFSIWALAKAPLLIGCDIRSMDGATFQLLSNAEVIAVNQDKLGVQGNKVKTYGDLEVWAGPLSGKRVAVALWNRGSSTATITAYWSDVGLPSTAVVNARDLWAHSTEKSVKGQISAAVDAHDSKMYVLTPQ
Method: as §1, §2, §3, §4, §5

[7] = target: T4, β-galactosidase (E. coli) (Escherichia coli, UniProt P00722); experiment: Glycosidase inhibition assay, β-galactosidase (E. coli); type: biochemical; settings: at 100 μM inhibitor concentration
T4 construct: purchased
T4 sequence (P00722 2-1024): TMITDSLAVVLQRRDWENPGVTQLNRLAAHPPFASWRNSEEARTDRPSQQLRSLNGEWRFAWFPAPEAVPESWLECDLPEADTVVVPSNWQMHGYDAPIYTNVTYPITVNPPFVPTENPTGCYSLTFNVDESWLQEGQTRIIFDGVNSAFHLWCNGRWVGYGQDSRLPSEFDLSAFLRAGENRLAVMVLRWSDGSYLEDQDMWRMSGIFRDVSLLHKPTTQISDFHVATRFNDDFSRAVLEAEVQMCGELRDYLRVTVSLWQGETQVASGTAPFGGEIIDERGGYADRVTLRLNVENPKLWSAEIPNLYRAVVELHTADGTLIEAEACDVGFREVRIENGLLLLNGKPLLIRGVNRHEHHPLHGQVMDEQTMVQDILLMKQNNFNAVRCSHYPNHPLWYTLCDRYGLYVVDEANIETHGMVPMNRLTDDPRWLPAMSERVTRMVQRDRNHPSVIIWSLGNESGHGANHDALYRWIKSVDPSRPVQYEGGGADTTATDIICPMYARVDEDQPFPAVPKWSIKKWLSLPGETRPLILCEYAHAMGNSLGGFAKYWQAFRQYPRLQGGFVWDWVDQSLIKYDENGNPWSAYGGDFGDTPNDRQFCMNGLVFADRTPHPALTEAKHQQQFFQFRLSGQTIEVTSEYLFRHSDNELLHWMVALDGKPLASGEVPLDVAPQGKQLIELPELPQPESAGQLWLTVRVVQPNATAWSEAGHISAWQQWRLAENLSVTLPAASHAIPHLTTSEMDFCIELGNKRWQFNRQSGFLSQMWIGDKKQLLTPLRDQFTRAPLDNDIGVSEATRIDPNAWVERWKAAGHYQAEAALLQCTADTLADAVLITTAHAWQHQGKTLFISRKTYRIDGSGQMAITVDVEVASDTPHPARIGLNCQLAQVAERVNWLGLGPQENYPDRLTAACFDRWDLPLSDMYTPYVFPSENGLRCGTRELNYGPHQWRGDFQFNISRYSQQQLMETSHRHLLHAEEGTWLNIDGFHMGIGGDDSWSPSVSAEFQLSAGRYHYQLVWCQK
Method: as §1, §2, §3, §4, §5

β-glucosidase (almonds) [8] = settings: cited from earlier work
[9] = target: T2, β-galactosidase (A. oryzae); parameters: method as in PMID 21548609; settings: cited from earlier work
[10] = target: T4, β-galactosidase (E. coli); settings: cited from earlier work
[11] = target: T3, α-galactosidase (green coffee beans); parameters: method as in PMID 21548609; settings: cited from earlier work

Structure (SMILES) | mode of inhibition [1] | Ki [1] | inhibition [2] | mode of inhibition ([3]; Cornish-Bowden method) | Ki ([3]; pH 6.8, 25 °C) | IC50 ([3]; pH 6.8, 25 °C) | inhibition [4] | IC50 (β-glucosidase (almonds) [5]) | inhibition [6] | inhibition [7] | fold impairment in the activity against α-mannosidase ([1]; N-ethyl 5Cl compared with 4Cl) | inhibition (β-glucosidase (almonds) [5]) | inhibition ([1]; at 100 μM inhibitor concentration) | Ki (β-glucosidase (almonds) [8]; source of β-glucosidase not given) | Ki (β-glucosidase (almonds) [8]) | Ki [9] | inhibition [10] | inhibition [11]
Cl.N=C1[C@@H](O)[C@H](O)[C@@H](CO)N1N [4Cl, (2R,3R,4R)-1-Amino-3,4-dihydroxy-2-(hydroxymethyl)-5-iminopyrrolidine Hydrochloride] | competitive | 230 nM | N.I. ^b | competitive | 5 µM | 6.6 µM | N.I. ^b | > 100 µM | N.I. ^b | N.I. ^b |  |  |  |  |  |  |  | 
CCNN1C(=N)[C@@H](O)[C@H](O)[C@H]1CO.Cl [5Cl, (2R,3R,4R)-1-(Ethylamino)-3,4-dihydroxy-2-(hydroxymethyl)-5-iminopyrrolidine Hydrochloride] | competitive | 1400 nM | N.I. ^b |  |  | > 100 µM | N.I. ^b |  | N.I. ^b | N.I. ^b | roughly 6 fold | N.I. ^b |  |  |  |  |  | 
Cl.NN1C(=O)[C@@H](O)[C@H](O)[C@H]1CO [6HCl, (3S,4R,5R)-1-Amino-3,4-dihydroxy-5-(hydroxymethyl)-2-pyrrolidinone Hydrochloride] |  |  | N.I. ^b |  |  | > 100 µM | N.I. ^b |  | N.I. ^b | N.I. ^b |  | N.I. ^b | N.I. ^b |  |  |  |  | 
OC[C@H]1NC[C@H](O)[C@@H](O)[C@@H]1O [DNJ, 1-deoxynojirimycin, reference compound] |  |  |  |  |  |  | N.I. ^b | […] |  | N.I. ^b |  |  |  |  |  |  |  | 
OC[C@H]1CNC[C@@H](O)[C@@H]1O [compound 1, isofagomine, reference compound] |  |  |  |  |  | 32 µM | N.I. ^b | 0.48 µM | N.I. ^b | N.I. ^b |  |  |  | 110 nM |  |  |  | 
N=C1NC[C@H](CO)[C@@H](O)[C@@H]1O [compound 2, isofagomidine] |  |  |  |  |  |  |  |  |  |  |  |  |  |  | > 210000 nM | 210 µM | N.I. ^d | N.I. ^d
